Source: patent publication US5614213A, “Use of estriol for treatment of climacteric osteoporosis” (priority 1992, dated 1997)
Entries after “also recorded” stand apart in the source; their conditions may differ.

Columns and labels:
ovulation in women = conditions: lower dosages than 5 mg/day; cited from earlier work
osteoporosis = conditions: cited from earlier work; for prevention of osteoporosis in the climacteric: hormone replacement
[1] = test system: arteriosclerotic vascular changes; conditions: hormone replacement; cited from earlier work
[2] = conjugation with glucuronic acid or sulphate in the liver; cited from earlier work
[3] = test system: castrated (OVX) Wistar rats; test: Hydroxyproline excretion in 24-h urine of ovariectomized rats after estriol application; type: in vivo; conditions: for Hydroxyproline content in the urine: mean, n = 8
Excerpt: (§1) Investigation of the osteoporotic action of estriol on ovariectomized rats
(§2) 11 week-old female Wistar rats lose a considerable proportion of their bone substance in two weeks after ovariectomy. It was to be investigated whether this effect is preventable through estriol. For this, this hormone was to be applied such that constant hormone levels are established over the whole test period. […] The assumption that estriol has insufficient activity as a partial estrogen antagonist at the bone was also to be examined as another possibility.
(§3) Female Wistar rats from the experimental animal breeders "Biomodelle GmbH", O-1291 Schonwalde (breed: Wistar) were supplied at ages from nine to ten weeks and kept under conventional conditions at a room temperature of 22° C.[…] and under a light regime (14 h light and 10 h dark) in PVC shells with fitted wire covers.
(§4) The animals received standard formulation R 13 feed and drinking water ad libitum.
(§5) At the age of 11 weeks (body weight approximately 220 g) the animals were used in the experiment.
(§6) Subcutaneous application osmotic pumps. Model: Alzet 2002, capacity of the reservoir 200 μl. Throughflow 0.5 μl/hour. Solution of the test substance in propylene glycol.
(§7) The duration of the whole experiment was 3 weeks, 1 week before castration and two weeks (15 days) after castration.
In the week prior to castration, characteristic parameters. were determined "as starting values" prior to the estrogen-specific bone degradation through ovariectomy (hydroxyproline content in the 24-h-urine, hydroxyproline content and estriol concentration in the serum).
For the determination of the hydroxyproline content in the urine, the collective urine was obtained over 24 hours. For this, the animals were individually placed once a week in diuresis cages which permitted a sufficiently clean collection of urine, separate from faeces. The hydroxyproline content was then determined in the collective urine of each individual animal.
(§8) Hydroxyproline is released during the decomposition of collagen which also accounts for a considerable proportion of the bone substance.

mastocarcinomas = conditions: mastocarcinoma; induction and promotion phases; cited from earlier work
receptor = conditions: in combination with "strong" estrogens; cited from earlier work
uterus = conditions: administered once to ovariectomized rats; cited from earlier work
[4] = test system: castrated (OVX) Wistar rats; test: Hydroxyproline level in serum of ovariectomized rats after estriol application; type: in vivo; conditions: for Hydroxyproline content in the serum: mean
Excerpt: as §1, §2, §3, §4, §5, §6, §7
In the week prior to castration, characteristic parameters. were determined "as starting values" prior to the estrogen-specific bone degradation through ovariectomy (hydroxyproline content in the 24-h-urine, hydroxyproline content and estriol concentration in the serum). […]
as §8

femur bones = test: Trabecular proportion of the bone volume (femur histology) after ovariectomy; type: in vivo, Wistar rats
Excerpt: as §1, §2, §3, §4, §5, §6, §7
At the end of the experiment the animals were killed and the femur bones fixed for histological investigations according to standard methods, cut with a hard cut microtome and investigated qualitatively and quantitatively as regards morphological features.
The effect on the proportion of trabecular structures in the surface of bone sections was determined as a parameter of the osteoprotective effect of estriol.

bones = conditions: dosage quantities of 12 mg/day oral; cited from earlier work
[5] = OVX + D1, estriol 0.1 μg/24 hrs, day 7 after castration
[6] = OVX + D1, estriol 0.1 μg/24 hrs, day 12 after castration
[7] = OVX + D1, estriol 0.1 μg/24 hrs, day 13 after castration
[8] = OVX + D1, estriol 0.1 μg/24 hrs, day 14 after castration
[9] = OVX + D1, estriol 0.1 μg/24 hrs, day 15 after castration
[10] = OVX + D2, estriol 1.0 μg/24 hrs, day 7 after castration
[11] = OVX + D2, estriol 1.0 μg/24 hrs, day 12 after castration
[12] = OVX + D2, estriol 1.0 μg/24 hrs, day 13 after castration
[13] = OVX + D2, estriol 1.0 μg/24 hrs, day 14 after castration
[14] = OVX + D2, estriol 1.0 μg/24 hrs, day 15 after castration
[15] = OVX + D3, estriol 10.0 μg/24 hrs, day 7 after castration
[16] = OVX + D3, estriol 10.0 μg/24 hrs, day 12 after castration
[17] = OVX + D3, estriol 10.0 μg/24 hrs, day 13 after castration
[18] = OVX + D3, estriol 10.0 μg/24 hrs, day 14 after castration
[19] = OVX + D3, estriol 10.0 μg/24 hrs, day 15 after castration
[20] = OVX + D4, estriol 50.0 μg/24 hrs, day 7 after castration
[21] = OVX + D4, estriol 50.0 μg/24 hrs, day 15 after castration

## C[C@]12CC[C@@H]3c4ccc(O)cc4CC[C@H]3[C@@H]1CC[C@@H]2O [estradiol]
Ovulation in women
  suppression of ovulation in women: clearly possible
osteoporosis
  prevention of osteoporosis in the climacteric: can prevent advancing osteoporosis in the climacteric
[1]
  effect on arteriosclerotic vascular changes: can slow the advance of arteriosclerotic vascular changes

## C[C@]12CC[C@@H]3c4ccc(O)cc4CC[C@H]3[C@@H]1C[C@@H](O)[C@@H]2O [estriol]
[2]
  inactivation of estriol: inactivated extremely quickly
[3]; OVX + D1, estriol 0.1 μg/24 hrs, day 0 after castration (starting value)
  Hydroxyproline content in the urine: 1,46 μmol/1 d
[3]; [5]
  relative change of hydroxyproline content in the urine: 56,95%
  Hydroxyproline content in the urine: 2,15 μmol/1 d
[3]; [6]
  relative change of hydroxyproline content in the urine: 84,62%
  Hydroxyproline content in the urine: 2,41 μmol/1 d
[3]; [7]
  relative change of hydroxyproline content in the urine: 79,03%
  Hydroxyproline content in the urine: 2,51 μmol/1 d
[3]; [8]
  relative change of hydroxyproline content in the urine: 59,47%
  Hydroxyproline content in the urine: 2,11 μmol/1 d
[3]; [9]
  relative change of hydroxyproline content in the urine: 40,95%
  Hydroxyproline content in the urine: 2,00 μmol/1 d
[3]; OVX + D2, estriol 1.0 μg/24 hrs, day 0 after castration (starting value)
  Hydroxyproline content in the urine: 1,63 μmol/1 d
[3]; [10]
  relative change of hydroxyproline content in the urine: 15,48%
  Hydroxyproline content in the urine: 1,94 μmol/1 d
[3]; [11]
  relative change of hydroxyproline content in the urine: 74,86%
  Hydroxyproline content in the urine: 2,97 μmol/1 d
[3]; [12]
  relative change of hydroxyproline content in the urine: 42,71%
  Hydroxyproline content in the urine: 2,40 μmol/1 d
[3]; [13]
  relative change of hydroxyproline content in the urine: 37,83%
  Hydroxyproline content in the urine: 2,31 μmol/1 d
[3]; [14]
  relative change of hydroxyproline content in the urine: 10,69%
  Hydroxyproline content in the urine: 1,83 μmol/1 d
[3]; OVX + D3, estriol 10.0 μg/24 hrs, day 0 after castration (starting value)
  Hydroxyproline content in the urine: 1,67 μmol/1 d
[3]; [15]
  relative change of hydroxyproline content in the urine: 47,88%
  Hydroxyproline content in the urine: 0,88 μmol/1 d
[3]; [16]
  relative change of hydroxyproline content in the urine: -40,47%
  Hydroxyproline content in the urine: 0,98 μmol/1 d
[3]; [17]
  relative change of hydroxyproline content in the urine: -36,63%
  Hydroxyproline content in the urine: 1,04 μmol/1 d
[3]; [18]
  relative change of hydroxyproline content in the urine: -48,91%
  Hydroxyproline content in the urine: 0,94 μmol/1 d
[3]; [19]
  relative change of hydroxyproline content in the urine: -28,45%
  Hydroxyproline content in the urine: 1,16 μmol/1 d
[3]; [20]
  relative change of hydroxyproline content in the urine: -34,52%
[3]; OVX + D4, estriol 50.0 μg/24 hrs, day 12 after castration
  relative change of hydroxyproline content in the urine: -33,26%
[3]; OVX + D4, estriol 50.0 μg/24 hrs, day 13 after castration
  relative change of hydroxyproline content in the urine: -35,04%
[3]; OVX + D4, estriol 50.0 μg/24 hrs, day 14 after castration
  relative change of hydroxyproline content in the urine: -38,21%
[3]; [21]
  relative change of hydroxyproline content in the urine: -40,43%
[3]; result in words, Table 3
  effect on increase of hydroxyproline excretion in the urine after castration: can also be alleviated through treatment with estriol
mastocarcinomas
  anti-tumour effect: can prevent or suppress the development of mastocarcinomas; also recorded: proven anti-tumour effect
osteoporosis; official statement / text book
  effectiveness for osteoporosis prophylaxis: ineffectiveness; also recorded: Not effective for osteoporosis prophylaxis
receptor
  anti-estrogen action: proved to have an anti-estrogen action
uterus
  stimulation of uterine weights: does not significantly stimulate uterine weights
[4]; OVX + D1, estriol 0.1 μg/24 hrs, day 0 after castration (starting value), n = 8
  Hydroxyproline content in the serum: 30,55 μmol/1 l
[4]; [5]
  relative change of hydroxyproline content in the serum: 18,44%
[4]; OVX + D1, estriol 0.1 μg/24 hrs, day 7 after castration, n = 8
  Hydroxyproline content in the serum: 35,31 μmol/1 l
[4]; [9]
  relative change of hydroxyproline content in the serum: 11,66%
[4]; OVX + D1, estriol 0.1 μg/24 hrs, day 15 after castration, n = 8
  Hydroxyproline content in the serum: 33,36 μmol/1 l
[4]; OVX + D2, estriol 1.0 μg/24 hrs, day 0 after castration (starting value), n = 8
  Hydroxyproline content in the serum: 30,74 μmol/1 l
[4]; [10]
  relative change of hydroxyproline content in the serum: 8,82%
[4]; OVX + D2, estriol 1.0 μg/24 hrs, day 7 after castration, n = 8
  Hydroxyproline content in the serum: 33,20 μmol/1 l
[4]; [14]
  relative change of hydroxyproline content in the serum: 0,39%
[4]; OVX + D2, estriol 1.0 μg/24 hrs, day 15 after castration, n = 8
  Hydroxyproline content in the serum: 30,51 μmol/1 l
[4]; OVX + D3, estriol 10.0 μg/24 hrs, day 0 after castration (starting value), n = 8
  Hydroxyproline content in the serum: 28,16 μmol/1 l
[4]; [15]
  relative change of hydroxyproline content in the serum: -3,56%
[4]; OVX + D3, estriol 10.0 μg/24 hrs, day 7 after castration, n = 8
  Hydroxyproline content in the serum: 26,25 μmol/1 l
[4]; [19]
  relative change of hydroxyproline content in the serum: -23,81%
[4]; OVX + D3, estriol 10.0 μg/24 hrs, day 15 after castration, n = 8
  Hydroxyproline content in the serum: 20,90 μmol/1 l
[4]; OVX + D4, estriol 50.0 μg/24 hrs, day 0 after castration (starting value), n = 9
  Hydroxyproline content in the serum: 28,26 μmol/1 l
[4]; [20]
  relative change of hydroxyproline content in the serum: -8,87%
[4]; OVX + D4, estriol 50.0 μg/24 hrs, day 7 after castration, n = 9
  Hydroxyproline content in the serum: 25,45 μmol/1 l
[4]; [21]
  relative change of hydroxyproline content in the serum: -38,62%
[4]; OVX + D4, estriol 50.0 μg/24 hrs, day 15 after castration, n = 9
  Hydroxyproline content in the serum: 17,33 μmol/1 l
[4]; result in words, Table 2
  effect on increase of hydroxyproline in the blood after ovariectomy: this increase was suppressed through treatment with estriol in dose-dependent manner
Femur bones; OVX + 0.1 microg E3/day
  % trabecular proportion of the bone volume: 16.89%
Femur bones; OVX + 1.0 microg E3/day
  % trabecular proportion of the bone volume: 17.46%
Femur bones; OVX + 10.0 microg E3/day
  % trabecular proportion of the bone volume: 24.79%
Femur bones; OVX + 50.0 microg E3/day
  % trabecular proportion of the bone volume: 26.64%
Femur bones; overall evaluation, uniform levels of active ingredient
  osteoprotective potential: has an osteoprotective potential
Femur bones; result in words, Table 4
  effect on decomposition of bone mass after castration: alleviated by estriol in a dose-dependent manner
bones
  osteoprotective effectiveness in the bones: developed no osteoprotective effectiveness in the bones

## C[C@]12CC[C@@H]3c4ccc(O)cc4CC[C@H]3[C@@H]1CCC2=O [estrone]
osteoporosis
  prevention of osteoporosis in the climacteric: can prevent advancing osteoporosis in the climacteric
[1]
  effect on arteriosclerotic vascular changes: can slow the advance of arteriosclerotic vascular changes
